# Assay results as given in patent publication EP0024779A1, “Drugs for use with intrauterine devices and intrauterine devices containing said drugs” (Shaw, Seth Thomas, Jr., priority 1979, dated 1981).
# System: fibrinolytic activity
# Experiment: not given
# Details: over a prolonged period of time inside the uterus; cited from earlier work
row,Compound,inhibitor concentration required to be effective [mol/L]
1,"NCCCCCC(=O)O [EACA, epsilon aminocaproic acid]",0.001
2,NC[C@H]1CC[C@H](C(=O)O)CC1 [tranexamic acid],0.0001

# System: IUD associated uterine hemmorhage
# Experiment: not given
# Details: systemic (oral) intake; cited from earlier work
row,Compound,IUD associated uterine hemmorhage
1,"NCCCCCC(=O)O [EACA, epsilon aminocaproic acid]",alleviated
2,NC[C@H]1CC[C@H](C(=O)O)CC1 [tranexamic acid],alleviated

# System: fibrinolytic activity
# Experiment: Fibrinolytic inhibition, potency relative to dibromopropamidine
# Assay type: biochemical
# Details: on a molar concentration basis
# From the text: The numerical values are expressed as a reciprocal of the concentration of the drug producing the equivalent inhibition to the dibromopropamidine. Where no values for relative potency are listed such values have not been specifically determined.
row,Compound,anti-fibrinolytic effect greater than that of dibromopropamidine [times]
1,"N=C(N)Nc1ccc(C(=O)Oc2ccc([N+](=O)[O-])cc2)cc1 [NPG3, p-nitrophenyl-p'-guanidinobenzoate]",~100

# Same assay, conditions: relative to dibromopropamidine; reciprocal of the concentration producing inhibition equivalent to dibromopropamidine
row,Compound,Relative Potency
1,N=C(N)c1ccc(OCCCCCOc2ccc(C(=N)N)cc2Br)c(Br)c1 [Dibromopentamidine],3.6
2,N=C(N)c1ccc(OCCCOc2ccc(C(=N)N)cc2Br)c(Br)c1 [Dibromopropamidine],1.0
3,N=C(N)c1ccc(OCCCCCCOc2ccc(C(=N)N)cc2Cl)c(Cl)c1 [Dichlorohexamidine],1.9
4,N=C(N)c1ccc(OCCCCCCOc2ccc(C(=N)N)cc2I)c(I)c1 [Diiodohexamidine],7.5
5,N=C(N)c1ccc(OCCCCCOc2ccc(C(=N)N)cc2I)c(I)c1 [Diiodopentamidine],6.8
6,N=C(N)c1ccc(OCCCCCCCOc2ccc(C(=N)N)cc2)cc1 [Heptamidine],1.9
7,N=C(N)c1ccc(OCCCCCCOc2ccc(C(=N)N)cc2)cc1 [Hexamidine],1.6
8,N=C(N)c1ccc(OCCCCCCOc2ccc(C(=N)N)cc2I)cc1 [Monoiodohexamidine],4.4
9,N=C(N)c1ccc(OCCCCCCCCOc2ccc(C(=N)N)cc2)cc1 [Octamidine],2.6
10,N=C(N)c1ccc(OCCCCCOc2ccc(C(=N)N)cc2)cc1 [Pentamidine],2.4
11,N=C(N)c1ccc(Oc2ccc(C(=N)N)cc2)cc1 [Phenamidine],0.2
12,N=C(N)c1ccc(OCCCOc2ccc(C(=N)N)cc2)cc1 [Propamidine],1.2
13,N=C(N)c1cccc(OCCCCCOc2cccc(C(=N)N)c2)c1 [m-Pentamidine],0.6
